In patent publication US20130317054A1, “NEURONAL NICOTINIC AGONIST AND METHODS OF USE” (ABBVIE INC., priority 2012, published 2013):

Tests used:
[1] = test system: patients with schizophrenia; settings: cigarettes, sprays, patch; cited from earlier work
[2] = test system: patients with schizophrenia; settings: cited from earlier work
[3] = in vivo; cited from earlier work
[4] = test system: clinically stable subjects with schizophrenia; test: Phase 2a Clinical Study A: NSA-16 (negative symptoms); format: in vivo, human
From the text: (§1) A Phase 2a proof-of-concept (POC) study in clinically stable subjects with schizophrenia who were clinically stable and received stable doses of atypical antipsychotic therapy. The study was a Phase 2, multi-center, randomized, double-blind, placebo-controlled, parallel group study designed to evaluate the safety and efficacy of doses of (4s)-4-(5-phenyl-1,3,4-thiadiazol-2-yloxy)-1-azatricyclo[3.3.1.1^3,7]decane (Compound A) in clinically stable male and female subjects (ages 20 to 55, inclusive) with a Diagnostic and Statistical Manual of Mental Disorders—Fourth Edition, Text Revision (DSM-IV-TR) diagnosis of schizophrenia. […] The criteria for clinical stability was determined by a combination of retrospective data (over the 4 months prior to the start of Screening, which will be supported by clinical records, patient, identified responsible contact person, and physician interviews), and prospective data assessed during the Prospective Stabilization Period of 28 to 42 days duration. […]
(§2) The primary endpoint was the MCCB composite score, and the primary endpoint analysis was the change on the MCCB composite score from baseline to endpoint versus placebo. Other secondary measures included the MCCB domains, the NSA-16, the CANTAB cognition battery (measured at different time points from the MCCB), and the UPSA-2. […]

[5] = test system: clinically stable subjects with schizophrenia; test: Phase 2a Clinical Study A: CANTAB cognition battery; format: in vivo, human; settings: taken at different time points from the MCCB
From the text: as §1, §2

[6] = test system: clinically stable subjects with schizophrenia; test: Phase 2a Clinical Study A: Positive and Negative Syndrome Scale (PANSS); format: in vivo, human; settings: ITT or nonsmoker groups, throughout the study
From the text: as §1, §2

[7] = test system: clinically stable subjects with schizophrenia; test: Phase 2a Clinical Study A: disposition of subjects and tolerability; format: in vivo, human; settings: for Primary reason for discontinuation: Adverse event: percentages based on treated subjects
From the text: (§3) A Phase 2a proof-of-concept (POC) study in clinically stable subjects with schizophrenia who were clinically stable and received stable doses of atypical antipsychotic therapy. The study was a Phase 2, multi-center, randomized, double-blind, placebo-controlled, parallel group study designed to evaluate the safety and efficacy of doses of (4s)-4-(5-phenyl-1,3,4-thiadiazol-2-yloxy)-1-azatricyclo[3.3.1.1^3,7]decane (Compound A) in clinically stable male and female subjects (ages 20 to 55, inclusive) with a Diagnostic and Statistical Manual of Mental Disorders—Fourth Edition, Text Revision (DSM-IV-TR) diagnosis of schizophrenia. Psychiatric diagnoses were confirmed using the Mini-International Neuropsychiatric Interview (MINI) version 6.0.0. The criteria for clinical stability was determined by a combination of retrospective data (over the 4 months prior to the start of Screening, which will be supported by clinical records, patient, identified responsible contact person, and physician interviews), and prospective data assessed during the Prospective Stabilization Period of 28 to 42 days duration.
(§4) The study was a Phase 2, multi-center, randomized, double-blind, placebo-controlled, parallel group study designed to evaluate the safety and efficacy of doses of (4s)-4-(5-phenyl-1,3,4-thiadiazol-2-yloxy)-1-azatricyclo[3.3.1.1^3,7]decane, which is also recognized as Compound A, in treating cognitive deficits in subjects with schizophrenia who were clinically stable and receiving one or two atypical antipsychotic medications. Study drug was administered orally.
(§5) The study consisted of a screening period of at least 28 and up to 42 days, a 84-day outpatient treatment period, a 14-day post-treatment period, and a post-treatment follow-up period. The screening period consisted of three visits: Screening Visit 1, Screening Visit 2, and Day −1. Upon completion of Day −1 procedures, eligible subjects were randomized through an Interactive Voice Response/Interactive Web-Based (IVR/IWB) system. Subjects were randomized in an equal ratio to one of three treatment groups (placebo, 10 mg Compound A, or 25 mg Compound A).
(§6) Subjects were randomized in a 1:1:1 ratio with placebo, 10 mg QD Compound A, of 25 mg Compound A. Each subject was instructed to take study drug once-daily in the morning for 12 weeks. Each daily dose was preferably taken with food. The subject and investigator were blinded to the treatment assignment throughout the study. The treatment assignments for the study subjects are shown below in Table 1.
Subjects completed 2 visits during the screening period. […]

[8] = test system: clinically stable subjects with schizophrenia; test: Phase 2a Clinical Study A: UCSD Performance-Based Skills Assessment-2 (UPSA-2); format: in vivo, human; settings: for UPSA-2 change from baseline score: placebo 2.6, not statistically significant
From the text: as §3, §4, §5, §6
(§7) The primary endpoint was the MCCB composite score, and the primary endpoint analysis was the change on the MCCB composite score from baseline to endpoint versus placebo. Other secondary measures included the MCCB domains, the NSA-16, the CANTAB cognition battery (measured at different time points from the MCCB), and the UPSA-2. The Positive and Negative Syndrome Scale (PANSS) was included to document stability in schizophrenia symptomatology.
The UCSD Performance-Based Skills Assessment-2 (UPSA-2) is a role-play test designed for subjects with schizophrenia to evaluate cognitive functional capacity in six selected domains of basic living skills. These areas include Organization/Planning, Financial Skills, Communication, Transportation, Household Management, and Medication Management. […] Scores were obtained for each subtest, and the total score was the sum of these subtests. […] The UPSA-2 required an average of 30 minutes to administer. The UPSA-2 was administered in on Days 14, 28, 56, 84 and 98.

[9] = test system: clinically stable subjects with schizophrenia; test: Phase 2a Clinical Study A: MATRICS Consensus Cognitive Battery (MCCB); format: in vivo, human; settings: for change from baseline to Week 12 in MCCB composite score (LS mean): ITT analysis, 12 weeks; for MCCB composite LS mean change from baseline to Week 12: subset of nonsmokers
From the text: as §3, §4, §5, §6, §7
The MCCB was developed by a consortium of academic, industry, the Food and Drug Administration (FDA) and National Institute of Mental Health (NIMH) members called Measurement and Treatment Research to Improve Cognition in Schizophrenia (MATRICS). The battery was established in a multiple phase process that involved experts identifying cognitive tests in the literature that had shown deficits in schizophrenia, use of factor analysis to identify key domains of cognitive deficits in schizophrenia, and then empirically identifying the best tests for each domain based on reliability, validity and feasibility for use in clinical trials. The FDA has endorsed the MCCB as an appropriate outcome measure for Phase 3 CDS trials. […]

[10] = nonsmokers, dose group not stated
[11] = subset of smoking subjects, both dose groups (10 mg, 25 mg)

CN1CCCC1c1cccnc1 (stereo not shown) [Nicotine, nicotine]
neuropsychological performance [1]: improved

COc1ccc(/C=C2\CCCN=C2c2cccnc2)c(OC)c1 [GTS-21]
effect on the Repeatable Battery for the Assessment of Neuropsychological Status total scale [2]: positive effects

O=C(N[C@H]1CN2CCC1CC2)c1cc2cccc(Cl)c2s1 [EVP-6124, N-[(3R)-1-azabicyclo[2.2.2]oct-3-yl]-7-chloro-1-benzothiophene-2-carboxamide]
effect on the CogState test battery [3]: improvements

c1ccc(-c2nnc(O[C@@H]3C4CC5C[C@H]3C[N@](C5)C4)s2)cc1 [Compound A, (4s)-4-(5-phenyl-1,3,4-thiadiazol-2-yloxy)-1-azatricyclo[3.3.1.1^3,7]decane]
effect on negative symptoms of schizophrenia (summary) ([4]; human, in vivo): No effect
NSA-16 analyses ([4]; nonsmoking subjects and subjects with predominant negative symptoms): did not reveal statistical significance
Results of the CANTAB battery [5]: markedly similar to those of the MCCB
changes in the PANSS scores [6]: no significant changes
Primary reason for discontinuation: Adverse event ([7]; 10 mg QD): 4 (5.8) n (%)
Primary reason for discontinuation: Adverse event ([7]; 25 mg QD): 3 (4.5) n (%)
Primary reason for discontinuation: Adverse event ([7]; Compound A overall): 7 (5.1) n (%)
tolerability in subjects with schizophrenia ([7]; doses up to 25 mg QD, including 10 mg QD and 25 mg QD): well tolerated
UPSA-2 composite score ([8]; ITT, either dose group (10 mg, 25 mg)): No significance
UPSA-2 change from baseline score ([8]; nonsmokers, 10 mg): 1.4
UPSA-2 change from baseline score ([8]; nonsmokers, 25 mg): 3.9
UPSA-2 effect size (Cohen's d) based on the raw data [8, 10]: 0.13
UPSA-2 model-based effect size [8, 10]: 0.23
change from baseline scores on the UPSA-2 [8, 11]: markedly similar to placebo
change from baseline to Week 12 in MCCB composite score (LS mean) ([9]; 10 mg QD oral, P=0.088 versus placebo (LS mean +0.50)): +1.79
change from baseline to Week 12 in MCCB composite score (LS mean) ([9]; 25 mg QD oral, P=0.067 versus placebo (LS mean +0.50)): +2.02
effect on cognition in subjects with schizophrenia (summary) ([9]; driven by verbal learning, working memory and attention, consequence of the effect in nonsmoking subjects): procognitive effect
MCCB social cognition domain, mean values across treatment groups ([9]; nonsmokers, 10 mg, 25 mg and placebo): similar
MCCB all other domains with the exception of reasoning and problem solving, effect versus placebo ([9]; nonsmokers, active treatment groups, monotonic dose relationship): magnitude of effect was greater
MCCB composite LS mean change from baseline to Week 12 ([9]; 10 mg, P=0.021 compared to placebo (−0.7)): +2.1
MCCB composite LS mean change from baseline to Week 12 ([9]; 25 mg, P=0.001 compared to placebo (−0.7)): +4.5
change from baseline scores on the MCCB composite and domain scores [9, 11]: markedly similar to placebo
